# Data taken from PubChem BioAssay AID1552 (Sanford-Burnham Center for Chemical Genomics, 2009).
# Activity calls are given as the source filed them. How the calls were made is not given here.
# Molecular target: Ubiquitin-conjugating enzyme E2 N (Homo sapiens) (UniProt P61088)
# Assay: UBE2N binders by NMR, biophysical, purified protein (AID 1552)
# Details: NMR binding to purified UBE2N
# Ubiquitin-conjugating enzyme E2 N (Homo sapiens), sequence (P61088 whole entry, looked up): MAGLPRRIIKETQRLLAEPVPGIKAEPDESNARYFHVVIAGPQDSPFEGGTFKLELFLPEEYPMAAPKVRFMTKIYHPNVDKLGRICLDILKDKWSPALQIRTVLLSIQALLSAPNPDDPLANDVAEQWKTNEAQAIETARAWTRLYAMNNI
row,SMILES,Kd
1,Clc1ccccc1OCc1nc(-c2ccccn2)no1,> 4 mM (inactive)
2,O=C(O)C1CC(=O)N(C2Cc3ccccc3C2)C1 (stereo unspecified),> 4 mM (inactive)
3,COC(=O)[C@@H]1OC(=O)C2OC23[C@@]1(C)CCC1[C@@]2(C)CCC(=O)C(C)(C)C2C[C@@H](OC(C)=O)[C@]13C (stereo partly specified),> 4 mM (inactive)
4,COC(=O)c1sc(N)nc1C,> 4 mM (inactive)
5,CC1(C)C(=O)[C@@H]2C[C@@]3(O)C4=CC(=O)O[C@@H](c5ccoc5)[C@]4(C)CCC3C(C)(C2=O)[C@H]1CC(=O)O (stereo partly specified),> 4 mM (inactive)
6,CN(C)c1nc(N2CCOCC2)nc(N2CCOCC2)n1,> 4 mM (inactive)
7,Oc1ccc(-n2ccnc2)cc1,> 4 mM (inactive)
8,CC(=O)c1ccc(NC(=O)c2ocnc2C)cc1,> 4 mM (inactive)
9,COc1c(-c2coc3cc4c(cc3c2=O)CC(OC(C)=O)C(C)(C)O4)ccc2c1C=CC(C)(C)O2 (stereo unspecified),> 4 mM (inactive)
10,COc1ccc(NC(=O)N2CCCCC2)cc1,> 4 mM (inactive)
11,O=C(CSc1ccc(Cl)cc1)N1CCOCC1,> 4 mM (inactive)
12,Nc1cc(=O)[nH]c(SCC(=O)NCc2ccccc2)n1,> 4 mM (inactive)
13,CN(C)N1C(=O)C2C3C=CC(O3)C2C1=O (stereo unspecified),> 4 mM (inactive)
14,CN1CCN(C(=O)c2ccccc2C(=O)O)CC1,> 4 mM (inactive)
15,COc1ccc(Cc2nccc3cc(OC)c(OC)cc23)cc1OC,> 4 mM (inactive)
16,CCC(=O)NC(=S)Nc1ccc(O)cc1,> 4 mM (inactive)
17,CC(C)=CCC[C@](C)(O)C1CC=C(C)CC1 (stereo partly specified),> 4 mM (inactive)
18,COC(=O)N1CCN(c2ccc(OC)cc2)CC1,> 4 mM (inactive)
19,Cc1onc(-c2c(Cl)cccc2Cl)c1C(N)=O,> 4 mM (inactive)

row,SMILES,Kd
1,CN1CCN(C(=O)c2ccccc2N)CC1,> 4 mM (inactive)
2,CCOC(=O)c1c(C)nc2c(C#N)cnn2c1C,> 4 mM (inactive)
3,CNC(=O)n1ccc(C(=O)N2CCCCC2)n1,> 4 mM (inactive)
4,Cc1cc(C)n2nc(C(=O)NCc3ccco3)nc2n1,> 4 mM (inactive)
5,CC(O)C(=O)N/N=C/c1cccs1 (stereo unspecified),> 4 mM (inactive)
6,COc1cc2c(cc1O)CCNC2C (stereo unspecified),> 4 mM (inactive)
7,COc1ccc(-c2cc(=O)c3c(O)c(OC)c(O[C@H]4O[C@H](CO[C@@H]5O[C@@H](C)[C@H](O)[C@@H](O)[C@H]5O)[C@@H](O)[C@H](O)[C@H]4O)cc3o2)cc1,> 4 mM (inactive)
8,OCc1sccc1-n1cccc1,> 4 mM (inactive)
9,O=C1C2CCCCC2C(=O)N1Cc1cccnc1 (stereo unspecified),> 4 mM (inactive)
10,CC[C@@]1(O)C[C@H](O)c2c(cc3c(c2O)C(=O)c2c(O)ccc(O)c2C3=O)[C@H]1C(=O)OC,> 4 mM (inactive)
11,CC1CCC2(OC1)OC1CC3C4CCC5C[C@@H](O)CCC5(C)C4=CCC3(C)C1[C@@H]2C (stereo partly specified),> 4 mM (inactive)
12,Cc1occc1C(=O)Nc1nnc(C(F)(F)F)s1,> 4 mM (inactive)
13,COc1cc2cc[n+]3cc4c(OC)c(OC)ccc4cc3c2cc1OC,> 4 mM (inactive)
14,Cc1[nH]c2ccccc2c1C(=O)CSc1ncn[nH]1,> 4 mM (inactive)
15,CC12CNCC(C)(CNC1)C2O (stereo unspecified),> 4 mM (inactive)
16,Nc1cccc2c(=O)[nH][nH]c(=O)c12,> 4 mM (inactive)
17,COc1cc2c3cc1Oc1cc(ccc1O)C[C@@H]1c4c(cc(OC)c(O)c4Oc4ccc(cc4)C[C@@H]3N(C)CC2)CC[N+]1(C)C,> 4 mM (inactive)
18,C/C=C/COc1nc2c(c(=O)n(C)c(=O)n2C)n1C,> 4 mM (inactive)
19,Cc1ccccc1CSc1nnc(C)n1N,> 4 mM (inactive)

row,SMILES,Kd
1,CC1(C)Cc2nc3[nH]c(=S)[nH]c(=O)c3cc2CO1,> 4 mM (inactive)
2,O=C(CC1SC(=O)NC1=O)Nc1nccs1 (stereo unspecified),> 4 mM (inactive)
3,C=CCN1CC[C@]23c4c5ccc(O)c4OC2C(=O)CC[C@@]3(O)[C@H]1C5 (stereo partly specified),> 4 mM (inactive)
4,COc1ccc(/C=C/c2cc(O)cc(O)c2)cc1,> 4 mM (inactive)
5,O=C(O)c1ccc(-c2cccs2)s1,> 4 mM (inactive)
6,CCCc1cc(=O)[nH]c2nnc(SCC(C)=O)n12,> 4 mM (inactive)
7,O=C(C1CCC(C(=O)N2CCCC2)CC1)N1CCCC1 (stereo unspecified),> 4 mM (inactive)
8,O=C(CSc1cccc2cccnc12)N1CCCC1,> 4 mM (inactive)
9,COc1ccc(C)cc1S(=O)(=O)Nc1ccccc1C,> 4 mM (inactive)
10,CCc1noc(C)c1C(=O)Nc1ncc(C)s1,> 4 mM (inactive)
11,O=C1N=c2ccccc2=C1c1sc(=S)[nH]c1O,> 4 mM (inactive)
12,COC(=O)c1sccc1S(=O)(=O)N1CCCC1,> 4 mM (inactive)
13,COc1cc([C@@H]2c3cc4c(cc3[C@H](O)[C@H]3COC(=O)[C@H]23)OCO4)cc(OC)c1OC,> 4 mM (inactive)
14,Clc1ccccc1OCCn1ccnc1,> 4 mM (inactive)
15,O=C1CS/C(=N/N=C/c2cccs2)N1,> 4 mM (inactive)
16,O=C1C2CC=CCC2C(=O)N1c1cccc(O)c1 (stereo unspecified),> 4 mM (inactive)
17,NC(=O)CC1NC(=O)c2ccccc21 (stereo unspecified),> 4 mM (inactive)
18,COc1cc(-c2nnc(NC(C)=O)o2)cc(OC)c1OC,> 4 mM (inactive)
